Results from patent US4902690A, “Pest controlling compositions” (The General Hospital Corporation, priority 1988, dated 1990).
Values joined by “and” are separate entries in the source; they are usually repeats but may differ in a detail not shown here. Identical values can stand only once.

Legend:
[1] = test system: tobacco hornworms (Manducca sexta); assay: In vivo leaf test (feeding on sprayed tomato leaves); conditions: for effect of adding IBMX on antifeeding / pesticidal activity of the compound: IBMX 0.1%, FIGS. 9, 10, 17, Tables 4, 7, 8, FIG. 9 at 72 hours; for antifeeding activity of the compound by itself: FIGS. 10, 13, 17, Table 8; for activity as synergist of DDCDM: FIGS. 14, 15, 16, 8-phenyl-theophylline 0.1% with 0.1% DDCDM compared with 0.1% IBMX
[2] = test system: adenylate cyclase in nerve cord of tobacco hornworm; assay: Octopamine agonist activity, adenylate cyclase in broken cell preparations of insect nerve cord; format: biochemical, tobacco hornworm (Manducca sexta); conditions: FIG. 3
Description: In addition to the above method employing the firefly light organ, octopamine-sensitive adenylate cyclase can also be measured in tissue preparations from the nerve cord of any desired particular insect pest, using a modification of the method appearing in Nathanson et al. (Science 180:308-310 (1973)) herein incorporated by reference. […]. […] Otherwise, the procedure is identical to that described above.
[…]. The tissue is homogenized (usually 15 mg/ml) as above in 6 mM Tris maleate, pH 7.4. […]. This is done to cancel out the effects of dopamine and serotonin receptors which are usually present in nerve cord. It assures that the compound (B) tested is affecting only octopamine receptors (known to be present in all insect nerve cords).

[3] = test system: octopamine-sensitive adenylate cyclase (firefly lantern octopamine receptor); assay: Octopamine-sensitive adenylate cyclase activation, firefly light organ broken cell preparation; format: biochemical, firefly (Photinus pyralis); conditions: for Ka ratio / Vmax: FIG. 1, formamidines; for Vmax: % of octopamine
[4] = test system: phosphodiesterase enzyme of hornworm nerve cord; assay: PDE inhibitory activity, hornworm nerve tissue; format: biochemical, tobacco hornworm (Manducca sexta); conditions: FIG. 8
Text: (§1) The ability of any compound (A) to inhibit phosphodiesterase (PDE) activity in broken cell preparations of firefly lantern or in pest tissues can be determined either (1) by measuring the decrease in rate of hydrolysis of an added amount of cyclic AMP by PDE (see Methods Section of Nathanson et al., Mol. Pharmacol. 12:390-398 (1975)), or (2) by measuring the rate of accumulation of one of the breakdown products of cyclic AMP, such as 5'-AMP or adenosine (see method of Filburn et al., Anal. Biochem. 52:505-516 (1973)). Both of these are herein incorporated by reference.
(§2) In this assay (modified slightly from Filburn and Karn (Analyt. Biochem. 52: 505-516 (1973)), the rate of hydrolysis of labeled cyclic AMP to 5'-AMP by PDE is measured by converting the breakdown product (5'-AMP) to adenosine, which can be separated and measured by alumina chromatography. Specifically, tissue from either the firefly lantern or pest is homogenized (10-20 mg/ml) in 6 mM Tris-maleate buffer, pH 7.4. The hydrolysis reaction is run in test tubes containing (in 100 microliters): 80 mM Tris maleate, pH 7.4; 6 mM MgSO4; 10 pmoles tritiated cyclic AMP (2×10^4 to 2×10^5 cpm, depending upon the activity of the enzyme); 20 microliters of tissue homogenate; and various concentrations of the compound to be tested. In those cases in which the compound is insoluble in aqueous solution at pH 7.4, pH can be varied between pH 6.5 and 9.0 for optimization of solubility. In addition, the test compound can be initially solubilized in either 100% methanol or DMSO and diluted to a final concentration of 10% methanol or DMSO in the assay (in which case solvent controls are run in parallel).
The reaction is started by the addition of homogenate, run for 4 min at 37° C., and terminated by boiling for 90 sec. […] The void volume is discarded and the column is then eluted with 2 ml of 0.1N ammonium acetate, pH 4.0, the eluent collected and counted by liquid scintillation spectrometry. […]

Manducca eggs = assay: Ovacidal test (eggs dipped in drug solutions); format: in vivo, Manducca sexta
Description: In some cases, test agents were tested for ovacidal activity by dipping groups of 10-50 Manducca eggs in drug solutions for 60 seconds and then determining the percentage of eggs which produced viable larvae. A compound or synergist with active ovacidal activity was one which decreased the percentage of eggs hatched, relative to control.

[5] = test system: Firefly phosphodiesterase enzyme; assay: PDE inhibitory activity, firefly lantern; format: biochemical, firefly (Photinus pyralis)
Text: as §1
Generally, any compound capable of maximally inhibiting PDE activity by at least 50% (Vmax -inhibition) and preferably by at least 80% is preferred. Also, in terms of the concentration of the compound required for such inhibition, this can be quantitated by determining the IC 50-inhibition, i.e., the concentration of the compound required to cause 50% of the maximal inhibitioncaused by the compound at any concentration.
as §2
The reaction is started by the addition of homogenate, run for 4 min at 37° C., and terminated by boiling for 90 sec. The 5'AMP formed is then converted to adenosine by the addition of 20 microliters of an aqueous solution of 0.5 Units/ml of 5'-nucleotidase (Sigma, Grade IV), vortexed, and incubated for 30 minutes at 37° C. The second reaction is stopped by addition of 0.4 ml of 0.1N ammonium acetate, pH 4.0. The entire sample is then applied to a 0.5×8 cm column containing neutral alumina prewashed with 20 ml of 0.1N ammonium acetate, pH 4.0. The void volume is discarded and the column is then eluted with 2 ml of 0.1N ammonium acetate, pH 4.0, the eluent collected and counted by liquid scintillation spectrometry. Activity is cpms above that due to a blank which was initially incubated for 0 seconds in the first reaction.

[6] = test system: adenylate cyclase in firefly lantern; assay: Direct activation of adenylate cyclase in firefly lantern; format: biochemical, firefly (Photinus pyralis); conditions: FIG. 4
Description: The second type of pest controlling compounds (B2) useable in the present compositions are direct stimulators of the pest enzyme adenylate cyclase. These compounds bypass the receptor, and interact with one or another of the associated catalytic or regulatory subunits of adenylate cyclase, thereby stimulating the formation of cyclic AMP. Suitable compounds can be determined from assay of pest adenylate cyclase as described above.
Adenylate cyclase activation by test compounds was measured in test tubes containing (in 0.3 ml) 80 mM Tris-maleate, pH 7.4; 10 mM theophylline; 8 mM MgCl2; 0.1 mM GTP; 0.5 mM ethylene glycol bis (beta-aminoethyl ether)-N,N,N'N'-tetraacetic acid; 2 mM ATP; 0.06 ml of P2 fraction; and the various compounds to be tested. Prior experiments had determined that, under these conditions, octopamine-sensitive adenylate cyclase activity is optimized. Test compounds were initially solubilized (prior to aqueous dilution) in water or (if soluble) in 50% (v/v) methanol. If insoluble in 50% methanol, compounds may be dissolved initially in 100% methanol, or 100% dimethylsulfoxide, or 100% polyethylene glycol. […] Cyclic AMP in the supernatant was measured by protein-binding assay, according to the method of Brown et al., Adv. […] Protein concentration was determined by the method of Lowry et al., Journal of Biological Chemistry 193:265-275 (1951). […]

[7] = test system: adenylate cyclase, nerve cord of tobacco hornworm larvae; assay: Direct activation of adenylate cyclase, broken cell preparations of hornworm nerve cord; conditions: FIG. 5
[8] = agonist 10^-2 gm/100 ml + PDE Inhibitor IBMX 0.1 g/100 ml
[9] = agonist 10^-2 gm/100 ml, No PDE Inhibitor
[10] = agonist 10^-3 gm/100 ml + PDE Inhibitor IBMX 0.1 g/100 ml
[11] = agonist 10^-3 gm/100 ml, No PDE Inhibitor
[12] = agonist 1 gm/100 ml, No PDE Inhibitor
[13] = agonist 10^-1 gm/100 ml, No PDE Inhibitor
[14] = agonist 10^-1 gm/100 ml + PDE Inhibitor IBMX 0.1 g/100 ml

Structure (SMILES): NCC(O)c1ccc(O)cc1 (racemic) [(±)-p-octopamine]
- effect of adding IBMX on antifeeding / pesticidal activity of the compound [1]: greatly increases the percent leaf remaining
- activation of adenylate cyclase in nerve cord [2]: potent activators of adenylate cyclase
- Vmax (% OCT) ([3]; Table 1, phenylethylamines, maximal activation as % of that by (±)-p-octopamine, N.A. = No Activity): 81 ± 1 % OCT and 100 ± 1 % OCT

Structure (SMILES): Cn1c(=O)c2[nH]c(-c3ccccc3)nc2n(C)c1=O [8-phenyl-theophylline]
- inhibition of feeding (maximal, even at a high dose) ([1]; FIG. 13): ≤ 35%
- relative antifeeding potency ([1]; FIG. 13, dose sprayed on tomato leaves): shows the least activity
- antifeeding activity of the compound by itself [1]: little antifeeding activity
- activity as synergist of DDCDM [1]: much less activity as a synergist
- inhibition of phosphodiesterase activity (maximal) [4]: ≤ 30%

Structure (SMILES): CNC=Nc1ccc(Cl)cc1C [DCDM, mono-demethylchlordimeform]
- % Leaf Remaining [1, 8]: 98%
- % Leaf Remaining [1, 9]: 95%
- % Leaf Remaining [1, 10]: 90%
- % Leaf Remaining [1, 11]: 45%
- % Leaf Remaining ([1]; agonist 10^-4 gm/100 ml + PDE Inhibitor IBMX 0.1 g/100 ml): 75%
- % Leaf Remaining ([1]; agonist 10^-4 gm/100 ml, No PDE Inhibitor): < 5%
- more potent than DDCDM against the octopamine receptor [3]: 50%
- Ka ratio [3]: 6
- Vmax [3]: 76%
- % Living Larvae (Manducca eggs; agonist 1 gm/100 ml + IBMX 0.1 g/100 ml): 2%
- % Living Larvae (Manducca eggs; [12]): 2%
- % Living Larvae (Manducca eggs; agonist 10^-1 gm/100 ml + IBMX 0.1 g/100 ml): 3%
- % Living Larvae (Manducca eggs; [13]): 50%
- % Living Larvae (Manducca eggs; agonist 10^-2 gm/100 ml + IBMX 0.1 g/100 ml): 10%
- % Living Larvae (Manducca eggs; [9]): 50%

Structure (SMILES): Cc1cc(Cl)ccc1N=CN [DDCDM, di-demethylchlordimeform]
- state of the leaf 72 hours after treatment ([1]; 0.1% of each compound, FIG. 11): eaten substantial amounts of the leaf
- % Leaf Remaining (increase over control) ([1]; DDCDM 0.1 g/100 ml alone): 0%
- % Leaf Remaining ([1]; agonist 1 gm/100 ml + PDE Inhibitor IBMX 0.1 g/100 ml): 100%
- % Leaf Remaining [1, 12]: 100%
- % Leaf Remaining [1, 14]: 98%
- % Leaf Remaining [1, 13]: 30%
- % Leaf Remaining [1, 8]: 85%
- % Leaf Remaining [1, 9]: 7%
- % Leaf Remaining [1, 10]: 20%
- % Leaf Remaining [1, 11]: 5%
- activation of adenylate cyclase in nerve cord [2]: potent activators of adenylate cyclase
- Ka ratio [3]: 4
- Vmax [3]: 68%

Structure (SMILES): Cc1cc(Cl)ccc1N=C1NCCN1 [NC 7]
- effect of adding IBMX on antifeeding / pesticidal activity of the compound [1]: substantial increases in the potency
- % Leaf Remaining ([1]; agonist 0.3 (3 × 10^-1) gm/100 ml + PDE Inhibitor IBMX 0.1 g/100 ml): 100%
- % Leaf Remaining ([1]; agonist 0.3 (3 × 10^-1) gm/100 ml, No PDE Inhibitor): 80%
- % Leaf Remaining [1, 14]: 95%
- % Leaf Remaining [1, 13]: 55%
- % Leaf Remaining [1, 8]: 85%
- % Leaf Remaining [1, 9]: 30%
- % Leaf Remaining [1, 10]: 48%
- % Leaf Remaining [1, 11]: 23%
- activation of adenylate cyclase in nerve cord [2]: potent activators of adenylate cyclase
- Ka^oct /Ka^B ratio ([3]; Table 2, clonidines, N.A. = no activity): 9.8

Structure (SMILES): Cn1c(=O)c2c(ncn2C)n(C)c1=O [caffeine]
- phosphodiesterase inhibition ([5]; FIG. 6): active as phosphodiesterase inhibitors
- activity as synergist of DDCDM [1]: much more powerful in inhibiting leaf feeding than caffeine alone or DDCDM alone

Structure (SMILES): C=C[C@@]1(C)CC(=O)[C@]2(O)[C@@]3(C)[C@@H](O)CCC(C)(C)[C@@H]3[C@H](O)[C@H](OC(C)=O)[C@@]2(C)O1 [forskolin]
- Ka ratio [6]: 0.22
- Vmax [6]: 100%
- Ka ratio [7]: 0.20
- Vmax [7]: about 100%
- antifeeding activity of the compound by itself [1]: has antifeeding activity
- effect of adding IBMX on antifeeding / pesticidal activity of the compound [1]: enhanced

Structure (SMILES): COc1ccc(C[C@H](N)C(=O)N[C@H]2[C@@H](O)[C@H](n3cnc4c(N(C)C)ncnc43)O[C@@H]2CO)cc1 [puromycin]
- Vmax (maximal inhibition of PDE activity) ([5]; FIG. 7): greater than 70%
- IC50 ([5]; FIG. 7, read-out: IC50 -inhibition): < 2 mM
- activity as synergist of DDCDM [1]: able to synergize the pesticidal activity of DDCDM
